# Tests used:
# Experiment in all cases: MIC, broth microdilution (CLSI), substance alone or ATB combined with compound at 4 or 8 μg/mL
# ECO 190317 = type: cell-based, E. coli; conditions: ECO 190317
# Protocol: (§1) Compounds of the present invention were assessed against genotyped bacterial strains alone or in combination with an antibacterial. In the assays, MICs of said compounds or combination of antibiotics with fixed concentrations of said compounds (4 or 8 μg/mL) were determined by the broth microdilution method according to the Clinical Laboratory Standards Institute (CLSI-M7-A7). Briefly, compounds alone according to the invention were prepared in DMSO and spotted (2 μL each) on sterile polystyrene plates (Corning, 3788). Combinations of compounds and antibiotics dilutions were prepared in DMSO and spotted (1 μL each) on sterile polystyrene plates (Corning, 3788). Log phase bacterial suspensions were adjusted to a final density of 5·10^5 CFU/mL in cation-adjusted Mueller-Hinton broth (ca-MHB; Becton-Dickinson and Company) and added to each well (98 μL). Assays including Fosfomycin were supplemented with 25 μg/ml of Glucose-6-phosphate. Microplates were incubated for 16-20 h at 35° C. in ambient air. The MIC of the compounds was defined as the lowest concentration of said compounds that prevented bacterial growth as read by visual inspection. The MIC of ATB at each compound concentration was defined as the lowest concentration of ATB that prevented bacterial growth as read by visual inspection.
# ECO UFR39 = type: cell-based, E. coli; conditions: ECO UFR39
# Protocol: as §1
# KPN 6299 = type: cell-based, K. pneumoniae
# Protocol: as §1
# KPN BAA-1898 = type: cell-based, K. pneumoniae; conditions: KPN BAA-1898
# Protocol: as §1
# KPN UFR42 = type: cell-based, K. pneumoniae; conditions: KPN UFR42
# Protocol: as §1
# ECL P99 = type: cell-based, E. cloacae; conditions: ECL P99
# Protocol: as §1
# PAE 105250 = type: cell-based, P. aeruginosa; conditions: PAE 105250
# Protocol: as §1
# PAE UFR48 = type: cell-based, P. aeruginosa; conditions: PAE UFR48
# Protocol: as §1
# PAE UFR90 = type: cell-based, P. aeruginosa; conditions: PAE UFR90
# Protocol: as §1
# SAU 29213 = type: cell-based, S. aureus; conditions: SAU 29213
# Protocol: as §1
# SPN 49619 = type: cell-based, S. pneumoniae; conditions: SPN 49619
# Protocol: as §1
smiles,measurement,setting,value
CO/N=C(\C(=O)N[C@@H]1C(=O)N2C(C(=O)[O-])=C(C[n+]3cccc4c3CCC4)CS[C@H]12)c1csc(N)n1 [CPO],MIC ATB alone,ECO 190317; antibiotic alone,>256 µg/mL
same,MIC ATB combined with Example 1 @8 μg/ml,ECO 190317; with Example 1 @8 μg/ml,<0.031 µg/mL
same,MIC ATB combined with Example 1 @8 μg/ml,ECO 190317; with Example 1 at 8 μg/ml,<0.031 µg/mL
same,MIC ATB combined with Example 7 @8 μgml,ECO 190317; with Example 7 at 8 μg/ml,<0.031 µg/mL
same,MIC ATB combined with Example 9 @4 μg/ml,ECO 190317; with Example 9 @4 μg/ml,<0.031 µg/mL
same,MIC ATB combined with Example 9 @4 μg/ml,ECO 190317; with Example 9 at 4 μg/ml,<0.031 µg/mL
same,MIC ATB combined with Example 11 @8 μg/ml,ECO 190317; with Example 11 at 8 μg/ml,<0.031 µg/mL
same,MIC ATB combined with Example 12 @8 μg/ml,ECO 190317; with Example 12 at 8 μg/ml,<0.031 µg/mL
same,MIC ATB combined with Example 13 @8 μg/ml,ECO 190317; with Example 13 at 8 μg/ml,<0.031 µg/mL
same,MIC ATB combined with Example 14 @8 μg/ml,ECO 190317; with Example 14 at 8 μg/ml,<0.031 µg/mL
same,MIC ATB combined with Example 15 @4 μgml,ECO 190317; with Example 15 at 4 μg/ml,<=0.031 μg/mL
same,MIC ATB combined with Example 16 @4 μg/ml,ECO 190317; with Example 16 at 4 μg/ml,<0.031 µg/mL
same,MIC ATB alone,ECO UFR39; CPO alone,>32 µg/mL
same,MIC ATB alone,ECO UFR39; antibiotic alone,>32 µg/mL
same,MIC ATB combined with Example 1 @8 μg/ml,ECO UFR39; with Example 1 @8 μg/ml,<0.031 µg/mL
same,MIC ATB combined with Example 9 @4 μg/ml,ECO UFR39; with Example 9 @4 μg/ml,<0.031 µg/mL
same,MIC ATB alone,KPN 6299; antibiotic alone,>256 µg/mL
same,MIC ATB combined with Example 1 @8 μg/ml,KPN 6299; with Example 1 @8 μg/ml,0.5 µg/mL
same,MIC ATB combined with Example 1 @8 μg/ml,KPN 6299; with Example 1 at 8 μg/ml,0.5 µg/mL
same,MIC ATB combined with Example 7 @8 μgml,KPN 6299; with Example 7 at 8 μg/ml,0.063 µg/mL
same,MIC ATB combined with Example 9 @4 μg/ml,KPN 6299; with Example 9 @4 μg/ml,<=0.031 μg/mL
same,MIC ATB combined with Example 9 @4 μg/ml,KPN 6299; with Example 9 at 4 μg/ml,<=0.031 μg/mL
same,MIC ATB combined with Example 11 @8 μg/ml,KPN 6299; with Example 11 at 8 μg/ml,<0.031 µg/mL
same,MIC ATB combined with Example 12 @8 μg/ml,KPN 6299; with Example 12 at 8 μg/ml,<0.031 µg/mL
same,MIC ATB combined with Example 13 @8 μg/ml,KPN 6299; with Example 13 at 8 μg/ml,0.125 µg/mL
same,MIC ATB combined with Example 14 @8 μg/ml,KPN 6299; with Example 14 at 8 μg/ml,<0.031 µg/mL
same,MIC ATB combined with Example 15 @4 μgml,KPN 6299; with Example 15 at 4 μg/ml,<=0.031 μg/mL
same,MIC ATB combined with Example 16 @4 μg/ml,KPN 6299; with Example 16 at 4 μg/ml,<0.031 µg/mL
same,MIC ATB alone,KPN BAA-1898; antibiotic alone,>256 µg/mL
same,MIC ATB combined with Example 1 @8 μg/ml,KPN BAA-1898; with Example 1 @8 μg/ml,0.125 µg/mL
same,MIC ATB combined with Example 1 @8 μg/ml,KPN BAA-1898; with Example 1 at 8 μg/ml,0.125 µg/mL
same,MIC ATB combined with Example 7 @8 μgml,KPN BAA-1898; with Example 7 at 8 μg/ml,<0.031 µg/mL
same,MIC ATB combined with Example 9 @4 μg/ml,KPN BAA-1898; with Example 9 @4 μg/ml,<0.031 µg/mL
same,MIC ATB combined with Example 9 @4 μg/ml,KPN BAA-1898; with Example 9 at 4 μg/ml,<0.031 µg/mL
same,MIC ATB combined with Example 11 @8 μg/ml,KPN BAA-1898; with Example 11 at 8 μg/ml,<=0.031 μg/mL
same,MIC ATB combined with Example 12 @8 μg/ml,KPN BAA-1898; with Example 12 at 8 μg/ml,<0.031 µg/mL
same,MIC ATB combined with Example 13 @8 μg/ml,KPN BAA-1898; with Example 13 at 8 μg/ml,0.5 µg/mL
same,MIC ATB combined with Example 14 @8 μg/ml,KPN BAA-1898; with Example 14 at 8 μg/ml,<0.031 µg/mL
same,MIC ATB combined with Example 15 @4 μgml,KPN BAA-1898; with Example 15 at 4 μg/ml,<=0.031 μg/mL
same,MIC ATB combined with Example 16 @4 μg/ml,KPN BAA-1898; with Example 16 at 4 μg/ml,<0.031 µg/mL
same,MIC ATB alone,KPN UFR42; CPO alone,>32 µg/mL
same,MIC ATB alone,KPN UFR42; antibiotic alone,>32 µg/mL
same,MIC ATB combined with Example 1 @8 μg/ml,KPN UFR42; with Example 1 @8 μg/ml,16 µg/mL
same,MIC ATB combined with Example 9 @4 μg/ml,KPN UFR42; with Example 9 @4 μg/ml,<0.031 µg/mL
same,MIC ATB alone,ECL P99; antibiotic alone,16 µg/mL
same,MIC ATB combined with Example 1 @8 μg/ml,ECL P99; with Example 1 @8 μg/ml,<0.031 µg/mL
same,MIC ATB combined with Example 1 @8 μg/ml,ECL P99; with Example 1 at 8 μg/ml,<0.031 µg/mL
same,MIC ATB combined with Example 7 @8 μgml,ECL P99; with Example 7 at 8 μg/ml,<=0.031 μg/mL
same,MIC ATB combined with Example 9 @4 μg/ml,ECL P99; with Example 9 @4 μg/ml,<0.031 µg/mL
same,MIC ATB combined with Example 9 @4 μg/ml,ECL P99; with Example 9 at 4 μg/ml,<0.031 µg/mL
same,MIC ATB combined with Example 11 @8 μg/ml,ECL P99; with Example 11 at 8 μg/ml,<0.031 µg/mL
same,MIC ATB combined with Example 12 @8 μg/ml,ECL P99; with Example 12 at 8 μg/ml,<0.031 µg/mL
same,MIC ATB combined with Example 13 @8 μg/ml,ECL P99; with Example 13 at 8 μg/ml,0.063 µg/mL
same,MIC ATB combined with Example 14 @8 μg/ml,ECL P99; with Example 14 at 8 μg/ml,<0.031 µg/mL
same,MIC ATB combined with Example 15 @4 μgml,ECL P99; with Example 15 at 4 μg/ml,<0.031 µg/mL
same,MIC ATB combined with Example 16 @4 μg/ml,ECL P99; with Example 16 at 4 μg/ml,<0.031 µg/mL
same,MIC ATB alone,PAE 105250; CPO alone,32 µg/mL
same,MIC ATB alone,PAE 105250; antibiotic alone,32 µg/mL
same,MIC ATB combined with Example 1 @8 μg/ml,PAE 105250; with Example 1 @8 μg/ml,<0.031 µg/mL
same,MIC ATB combined with Example 9 @4 μg/ml,PAE 105250; with Example 9 @4 μg/ml,32 µg/mL
same,MIC ATB alone,PAE UFR48; CPO alone,>32 µg/mL
same,MIC ATB alone,PAE UFR48; antibiotic alone,>32 µg/mL
same,MIC ATB combined with Example 1 @8 μg/ml,PAE UFR48; with Example 1 @8 μg/ml,<0.031 µg/mL
same,MIC ATB combined with Example 9 @4 μg/ml,PAE UFR48; with Example 9 @4 μg/ml,>32 µg/mL
same,MIC ATB alone,PAE UFR90; CPO alone,>32 µg/mL
same,MIC ATB alone,PAE UFR90; antibiotic alone,>32 µg/mL
same,MIC ATB combined with Example 1 @8 μg/ml,PAE UFR90; with Example 1 @8 μg/ml,<0.031 µg/mL
same,MIC ATB combined with Example 9 @4 μg/ml,PAE UFR90; with Example 9 @4 μg/ml,8 µg/mL
same,MIC ATB alone,SAU 29213; CPO alone,1 µg/mL
same,MIC ATB alone,SAU 29213; antibiotic alone,1 µg/mL
same,MIC ATB combined with Example 1 @8 μg/ml,SAU 29213; with Example 1 @8 μg/ml,1 µg/mL
same,MIC ATB combined with Example 9 @4 μg/ml,SAU 29213; with Example 9 @4 μg/ml,<0.031 µg/mL
same,MIC ATB alone,SPN 49619; CPO alone,<=0.031 μg/mL
same,MIC ATB alone,SPN 49619; antibiotic alone,<=0.031 μg/mL
same,MIC ATB combined with Example 1 @8 μg/ml,SPN 49619; with Example 1 @8 μg/ml,<=0.031 μg/mL
same,MIC ATB combined with Example 9 @4 μg/ml,SPN 49619; with Example 9 @4 μg/ml,<=0.031 μg/mL
